From the supplement of paper PMC12463676, “Small-molecule dissolution of stress granules by redox modulation benefits ALS models” (Nature Chemical Biology, 2025) come the findings set out here.

Compound in one test: O=[As]([O-])(O)O.[K+] [potassium arsenate]
Kind of test: thermal stability z-score vs DMSO; higher = more thermally stabilized by treatment. Particulars: HeLa; arsenate concentration 1 mM. The method, then:
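Cellular thermal proteome profiling in HeLa cells treated with 1 mM arsenate for 1 h (DMSO pretreatment), heated to ten temperatures (37-66.3 °C). Soluble protein was quantified by TMT mass spectrometry relative to DMSO controls; the thermal stability score was transformed to a z-score; mean of n = 3 experiments.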

Compound in another test: NC(=O)CCCCC1CCSS1 [lipoamide]
Described as above. The note with it: HeLa, lipoamide concentration 100 µM. The method, then: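 Cellular thermal proteome profiling in HeLa cells. Cells were treated with 100 µM lipoamide for 1 h, with or without 1 mM arsenate for a further 1 h, then heated to ten temperatures (37-66.3 °C), and soluble protein was quantified by TMT mass spectrometry relative to 0.1% DMSO controls. The thermal stability score (sum of log2 fold changes minus the abundance score) was transformed to a z-score; mean of n = 3 experiments.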

Setting [1] is: arsenate co-treatment: 1 mM arsenate 1 h.
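Further: each temperature applied for 3 min, abundance score taken as mean log2 fold change at the two lowest temperatures, z-score obtained by mean subtraction and division by SD.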

Chain of UniProt Q14204 (Q14204 whole entry): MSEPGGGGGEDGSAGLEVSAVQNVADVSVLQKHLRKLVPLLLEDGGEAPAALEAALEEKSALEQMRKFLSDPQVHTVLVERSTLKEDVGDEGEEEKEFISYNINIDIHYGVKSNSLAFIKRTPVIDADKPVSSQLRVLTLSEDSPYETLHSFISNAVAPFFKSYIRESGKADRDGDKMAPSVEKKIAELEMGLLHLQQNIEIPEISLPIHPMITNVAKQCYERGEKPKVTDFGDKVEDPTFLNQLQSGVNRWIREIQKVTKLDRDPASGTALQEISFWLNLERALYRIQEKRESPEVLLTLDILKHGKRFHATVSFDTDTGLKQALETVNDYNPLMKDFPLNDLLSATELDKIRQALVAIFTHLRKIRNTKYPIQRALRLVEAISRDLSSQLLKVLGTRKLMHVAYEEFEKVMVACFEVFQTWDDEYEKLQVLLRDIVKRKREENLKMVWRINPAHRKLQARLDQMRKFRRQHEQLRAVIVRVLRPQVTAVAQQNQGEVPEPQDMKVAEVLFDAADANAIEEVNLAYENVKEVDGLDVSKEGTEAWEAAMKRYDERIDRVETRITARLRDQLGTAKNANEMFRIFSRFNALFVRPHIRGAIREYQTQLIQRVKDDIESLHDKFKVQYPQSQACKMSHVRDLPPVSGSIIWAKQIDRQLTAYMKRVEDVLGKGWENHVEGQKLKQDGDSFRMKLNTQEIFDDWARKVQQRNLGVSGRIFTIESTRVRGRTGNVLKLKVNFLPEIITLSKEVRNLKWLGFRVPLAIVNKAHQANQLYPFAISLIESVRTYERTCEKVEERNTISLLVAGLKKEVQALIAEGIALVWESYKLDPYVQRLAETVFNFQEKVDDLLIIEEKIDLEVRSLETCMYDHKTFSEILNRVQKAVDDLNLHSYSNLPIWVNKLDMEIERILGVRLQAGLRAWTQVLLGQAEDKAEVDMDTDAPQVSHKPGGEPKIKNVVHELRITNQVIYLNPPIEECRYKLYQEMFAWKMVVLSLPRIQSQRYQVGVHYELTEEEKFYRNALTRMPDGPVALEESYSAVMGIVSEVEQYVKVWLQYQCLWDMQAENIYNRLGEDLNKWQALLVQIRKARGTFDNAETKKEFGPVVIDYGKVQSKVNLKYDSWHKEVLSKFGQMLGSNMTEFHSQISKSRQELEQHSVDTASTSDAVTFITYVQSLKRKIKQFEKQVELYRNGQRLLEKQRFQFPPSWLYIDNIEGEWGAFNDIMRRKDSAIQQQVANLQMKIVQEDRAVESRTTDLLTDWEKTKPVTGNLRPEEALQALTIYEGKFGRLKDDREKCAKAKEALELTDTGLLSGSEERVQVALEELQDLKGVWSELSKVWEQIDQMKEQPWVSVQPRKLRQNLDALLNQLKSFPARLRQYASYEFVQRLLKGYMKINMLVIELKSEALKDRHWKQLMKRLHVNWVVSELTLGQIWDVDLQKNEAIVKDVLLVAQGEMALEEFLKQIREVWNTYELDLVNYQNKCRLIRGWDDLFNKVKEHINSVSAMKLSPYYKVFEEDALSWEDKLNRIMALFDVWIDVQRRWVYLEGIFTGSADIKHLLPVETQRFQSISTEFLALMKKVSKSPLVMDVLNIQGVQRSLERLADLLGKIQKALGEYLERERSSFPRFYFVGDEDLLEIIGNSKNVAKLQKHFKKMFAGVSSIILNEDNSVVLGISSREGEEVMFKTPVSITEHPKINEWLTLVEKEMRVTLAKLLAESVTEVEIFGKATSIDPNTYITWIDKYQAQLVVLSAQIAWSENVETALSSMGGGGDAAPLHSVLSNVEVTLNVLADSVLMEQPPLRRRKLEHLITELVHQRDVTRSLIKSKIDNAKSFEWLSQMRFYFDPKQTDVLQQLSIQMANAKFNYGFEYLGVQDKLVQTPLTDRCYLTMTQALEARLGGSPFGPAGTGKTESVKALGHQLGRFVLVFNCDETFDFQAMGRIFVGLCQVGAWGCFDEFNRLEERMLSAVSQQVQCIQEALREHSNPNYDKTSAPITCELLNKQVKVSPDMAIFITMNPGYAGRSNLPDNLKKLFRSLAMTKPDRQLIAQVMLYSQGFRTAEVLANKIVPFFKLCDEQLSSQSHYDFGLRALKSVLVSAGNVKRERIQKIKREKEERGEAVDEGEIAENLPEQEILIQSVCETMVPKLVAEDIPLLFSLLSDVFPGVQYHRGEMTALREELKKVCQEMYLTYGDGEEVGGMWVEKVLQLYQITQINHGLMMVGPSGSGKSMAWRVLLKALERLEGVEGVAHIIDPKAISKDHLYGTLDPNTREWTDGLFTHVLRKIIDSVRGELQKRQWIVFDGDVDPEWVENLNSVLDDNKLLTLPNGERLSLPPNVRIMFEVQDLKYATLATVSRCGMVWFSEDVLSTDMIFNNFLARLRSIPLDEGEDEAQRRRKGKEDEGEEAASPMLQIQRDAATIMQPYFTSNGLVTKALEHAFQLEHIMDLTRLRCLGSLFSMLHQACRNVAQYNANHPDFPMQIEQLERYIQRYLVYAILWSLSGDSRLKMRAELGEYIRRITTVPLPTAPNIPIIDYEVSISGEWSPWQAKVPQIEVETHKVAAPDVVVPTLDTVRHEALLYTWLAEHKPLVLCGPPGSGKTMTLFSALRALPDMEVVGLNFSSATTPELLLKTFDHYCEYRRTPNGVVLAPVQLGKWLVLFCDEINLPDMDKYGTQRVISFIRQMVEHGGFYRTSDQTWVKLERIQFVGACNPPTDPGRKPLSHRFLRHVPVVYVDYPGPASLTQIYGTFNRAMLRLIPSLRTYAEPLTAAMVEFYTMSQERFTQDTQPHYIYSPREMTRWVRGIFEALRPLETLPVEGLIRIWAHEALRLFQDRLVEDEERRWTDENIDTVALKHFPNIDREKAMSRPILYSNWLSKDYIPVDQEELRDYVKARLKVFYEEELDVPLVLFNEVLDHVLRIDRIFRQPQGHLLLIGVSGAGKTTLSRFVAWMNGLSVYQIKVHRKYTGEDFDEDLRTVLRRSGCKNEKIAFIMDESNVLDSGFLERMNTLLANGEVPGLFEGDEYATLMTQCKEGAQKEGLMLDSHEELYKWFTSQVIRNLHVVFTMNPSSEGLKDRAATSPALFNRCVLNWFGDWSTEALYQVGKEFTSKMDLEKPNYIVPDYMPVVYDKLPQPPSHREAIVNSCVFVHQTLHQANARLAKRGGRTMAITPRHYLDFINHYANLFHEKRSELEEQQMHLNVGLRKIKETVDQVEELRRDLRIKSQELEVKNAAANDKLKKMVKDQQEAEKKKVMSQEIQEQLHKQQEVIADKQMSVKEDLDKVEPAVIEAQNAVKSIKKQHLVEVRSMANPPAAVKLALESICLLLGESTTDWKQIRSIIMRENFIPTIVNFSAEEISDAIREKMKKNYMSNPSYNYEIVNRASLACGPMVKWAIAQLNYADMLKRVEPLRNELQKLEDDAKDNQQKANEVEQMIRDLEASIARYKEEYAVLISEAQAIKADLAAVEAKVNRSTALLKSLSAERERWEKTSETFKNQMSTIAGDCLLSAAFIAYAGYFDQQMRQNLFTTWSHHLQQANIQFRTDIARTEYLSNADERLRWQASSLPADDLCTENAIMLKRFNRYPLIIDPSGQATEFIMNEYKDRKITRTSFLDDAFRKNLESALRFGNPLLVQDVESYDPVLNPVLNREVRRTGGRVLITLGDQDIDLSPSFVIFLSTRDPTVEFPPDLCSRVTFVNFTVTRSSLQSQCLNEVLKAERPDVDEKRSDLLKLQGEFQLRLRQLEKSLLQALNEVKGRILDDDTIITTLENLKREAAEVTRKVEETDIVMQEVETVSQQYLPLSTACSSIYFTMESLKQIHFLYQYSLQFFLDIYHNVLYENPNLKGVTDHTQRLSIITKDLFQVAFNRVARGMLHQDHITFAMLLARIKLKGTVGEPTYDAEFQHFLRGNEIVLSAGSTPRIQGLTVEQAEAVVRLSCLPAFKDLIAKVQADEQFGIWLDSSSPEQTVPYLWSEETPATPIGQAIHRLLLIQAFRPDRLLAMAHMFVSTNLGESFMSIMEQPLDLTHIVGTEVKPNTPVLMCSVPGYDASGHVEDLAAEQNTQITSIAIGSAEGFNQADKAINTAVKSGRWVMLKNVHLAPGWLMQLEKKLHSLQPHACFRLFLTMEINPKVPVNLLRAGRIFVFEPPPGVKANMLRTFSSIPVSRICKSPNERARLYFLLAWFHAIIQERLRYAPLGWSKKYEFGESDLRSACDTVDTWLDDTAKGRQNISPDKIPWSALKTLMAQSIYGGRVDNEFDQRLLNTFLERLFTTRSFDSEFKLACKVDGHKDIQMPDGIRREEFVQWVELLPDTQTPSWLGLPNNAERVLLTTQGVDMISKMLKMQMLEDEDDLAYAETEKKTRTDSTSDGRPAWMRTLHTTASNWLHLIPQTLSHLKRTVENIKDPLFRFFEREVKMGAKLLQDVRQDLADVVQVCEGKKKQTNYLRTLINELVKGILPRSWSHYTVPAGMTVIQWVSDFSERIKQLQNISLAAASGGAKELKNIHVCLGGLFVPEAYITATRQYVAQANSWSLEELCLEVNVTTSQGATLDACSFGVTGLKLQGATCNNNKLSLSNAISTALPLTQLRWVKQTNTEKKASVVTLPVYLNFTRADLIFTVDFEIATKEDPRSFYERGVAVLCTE
Chain of UniProt P23919 (P23919 whole entry): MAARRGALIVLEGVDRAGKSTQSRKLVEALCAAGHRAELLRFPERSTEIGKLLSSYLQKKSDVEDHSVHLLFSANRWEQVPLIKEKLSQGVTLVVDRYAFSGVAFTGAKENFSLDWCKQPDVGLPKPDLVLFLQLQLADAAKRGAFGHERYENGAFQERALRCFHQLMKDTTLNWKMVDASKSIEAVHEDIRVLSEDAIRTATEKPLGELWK
Chain of UniProt P33316 (P33316 whole entry): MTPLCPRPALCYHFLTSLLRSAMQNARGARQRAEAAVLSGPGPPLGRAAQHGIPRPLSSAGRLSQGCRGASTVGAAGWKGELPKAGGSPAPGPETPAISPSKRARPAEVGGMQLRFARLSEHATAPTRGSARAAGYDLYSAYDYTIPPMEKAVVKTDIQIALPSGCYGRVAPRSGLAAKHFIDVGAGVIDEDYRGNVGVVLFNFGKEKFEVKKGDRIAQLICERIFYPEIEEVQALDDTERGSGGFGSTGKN

For DPP7 (UniProt Q9UHL4), the results for the thermal stability z-score in the test with potassium arsenate, in the test with lipoamide (setting [1]) and with lipoamide (arsenate co-treatment: none) were -0.0217, 0.246 and 0.304, respectively.

Turning to DPP8 (UniProt Q6V1X1), the values for the thermal stability z-score in the test with potassium arsenate, with lipoamide (setting [1]) and with lipoamide (arsenate co-treatment: none) were 0.257, 0.32 and 0.543, respectively.

As for DPP9 (UniProt Q86TI2), the thermal stability z-score with potassium arsenate was 0.0941; with lipoamide (setting [1]), -0.0984; with lipoamide (arsenate co-treatment: none) it was -0.0569.

DPY19L1 (UniProt Q2PZI1): the thermal stability z-score with potassium arsenate is -0.259; in the test with lipoamide (setting [1]), -0.0328; in the test with lipoamide (arsenate co-treatment: none), -0.259.

As for DPYD (UniProt Q12882), the thermal stability z-score with potassium arsenate was found to be 0.0708; in the test with lipoamide (setting [1]) it was 0.0898; with lipoamide (arsenate co-treatment: none), 0.178.

As to DPYSL2 (UniProt Q16555), the thermal stability z-score is -0.691 in the test with potassium arsenate, 0.645 with lipoamide (setting [1]) and 0.115 in the test with lipoamide (arsenate co-treatment: none).

With DR1 (UniProt Q01658), the thermal stability z-score with potassium arsenate was -0.043; with lipoamide (setting [1]), 0.466; in the test with lipoamide (arsenate co-treatment: none) it was 0.257.

As to DRAM2 (UniProt Q6UX65), the values for the thermal stability z-score with potassium arsenate, with lipoamide (setting [1]) and with lipoamide (arsenate co-treatment: none) were 1.26, 0.00378 and -0.247, respectively.

Regarding DRAP1 (UniProt Q14919), the thermal stability z-score in the test with potassium arsenate is -0.503; in the test with lipoamide (setting [1]), -0.781; with lipoamide (arsenate co-treatment: none), -0.122.

DRG1 (UniProt Q9Y295): the results for the thermal stability z-score with potassium arsenate, in the test with lipoamide (setting [1]) and in the test with lipoamide (arsenate co-treatment: none) were 0.121, -0.143 and -0.213, respectively.

Take DRG2 (UniProt P55039): the thermal stability z-score in the test with potassium arsenate was -0.395; with lipoamide (setting [1]), -0.439; in the test with lipoamide (arsenate co-treatment: none), -0.192.

For DROSHA (UniProt Q9NRR4), the thermal stability z-score was 0.141 in the test with potassium arsenate, -0.124 in the test with lipoamide (setting [1]) and -0.127 with lipoamide (arsenate co-treatment: none).

As for DSC2 (UniProt Q02487), the thermal stability z-score with potassium arsenate is 1.77; with lipoamide (setting [1]) it was 2.38; in the test with lipoamide (arsenate co-treatment: none), 5.06.

Regarding DSCC1 (UniProt Q9BVC3), the thermal stability z-score with potassium arsenate is -0.199; with lipoamide (setting [1]), 0.0551; in the test with lipoamide (arsenate co-treatment: none), 0.0324.

With DSG1 (UniProt Q02413), the values for the thermal stability z-score in the test with potassium arsenate, in the test with lipoamide (setting [1]) and in the test with lipoamide (arsenate co-treatment: none) were 1.69, 11 and 13.3, respectively.

For the target DSG2 (UniProt Q14126), the thermal stability z-score with potassium arsenate was 0.99; in the test with lipoamide (setting [1]), -0.108; with lipoamide (arsenate co-treatment: none), 0.19.

Regarding DSN1 (UniProt Q9H410), the thermal stability z-score with potassium arsenate is 0.127; in the test with lipoamide (setting [1]) it was 0.0417; with lipoamide (arsenate co-treatment: none), -0.0069.

Consider DSP (UniProt P15924), for which the figures for the thermal stability z-score with potassium arsenate, in the test with lipoamide (setting [1]) and with lipoamide (arsenate co-treatment: none) were -0.576, 3.08 and 3.94, respectively.

Regarding DST (UniProt Q03001), the values for the thermal stability z-score with potassium arsenate, in the test with lipoamide (setting [1]) and with lipoamide (arsenate co-treatment: none) were -0.103, 0.0624 and -0.113, respectively.

Take DSTN (UniProt P60981): the results for the thermal stability z-score in the test with potassium arsenate, with lipoamide (setting [1]) and with lipoamide (arsenate co-treatment: none) were -1.22, 0.471 and 0.0123, respectively.

For DSTYK (UniProt Q6XUX3), the thermal stability z-score in the test with potassium arsenate is -0.117; in the test with lipoamide (setting [1]) it was 0.0406; with lipoamide (arsenate co-treatment: none), -0.378.

As to DTD1 (UniProt Q8TEA8), the thermal stability z-score with potassium arsenate was determined as 0.163; with lipoamide (setting [1]) it was 0.65; with lipoamide (arsenate co-treatment: none) it was 0.308.

As to DTL (UniProt Q9NZJ0), the thermal stability z-score is -0.408 with potassium arsenate, -0.0028 with lipoamide (setting [1]) and -0.0193 with lipoamide (arsenate co-treatment: none).

Take DTNBP1 (UniProt Q96EV8): the thermal stability z-score with potassium arsenate is -0.102; with lipoamide (setting [1]), 0.331; with lipoamide (arsenate co-treatment: none), 0.505.

Take DTWD1 (UniProt Q8N5C7): the thermal stability z-score with potassium arsenate was -0.742; in the test with lipoamide (setting [1]), -0.492; with lipoamide (arsenate co-treatment: none), -0.205.

DTWD2 (UniProt Q8NBA8): the thermal stability z-score in the test with potassium arsenate was 0.0974; with lipoamide (setting [1]), -0.283; with lipoamide (arsenate co-treatment: none), 0.0338.

For the target DTX2 (UniProt Q86UW9), the values for the thermal stability z-score with potassium arsenate, with lipoamide (setting [1]) and with lipoamide (arsenate co-treatment: none) were -0.381, -0.228 and 0.0239, respectively.

For the target DTX3L (UniProt Q8TDB6), the thermal stability z-score in the test with potassium arsenate is 0.176; in the test with lipoamide (setting [1]), -0.78; with lipoamide (arsenate co-treatment: none), -0.366.

As for DTYMK (UniProt P23919), the thermal stability z-score in the test with potassium arsenate is -1.22; with lipoamide (setting [1]), -0.383; with lipoamide (arsenate co-treatment: none), 0.537.

As for DUS1L (UniProt Q6P1R4), the thermal stability z-score in the test with potassium arsenate is 0.0119; with lipoamide (setting [1]), 0.178; in the test with lipoamide (arsenate co-treatment: none) it was -0.547.

For the target DUS2 (UniProt Q9NX74), the thermal stability z-score with potassium arsenate is -0.452; in the test with lipoamide (setting [1]), -0.517; with lipoamide (arsenate co-treatment: none) it was 0.0964.

As to DUS3L (UniProt Q96G46), the thermal stability z-score was -0.458 with potassium arsenate, -0.321 with lipoamide (setting [1]) and -0.548 with lipoamide (arsenate co-treatment: none).

Turning to DUSP3 (UniProt P51452), the thermal stability z-score in the test with potassium arsenate is -0.191; in the test with lipoamide (setting [1]), 0.504; with lipoamide (arsenate co-treatment: none) it was 0.265.

DUSP9 (UniProt Q99956): the thermal stability z-score in the test with potassium arsenate was found to be 0.0461; in the test with lipoamide (setting [1]), 0.738; in the test with lipoamide (arsenate co-treatment: none), 0.0584.

Regarding DUSP12 (UniProt Q9UNI6), the thermal stability z-score in the test with potassium arsenate was 1.05; with lipoamide (setting [1]) it was -0.0977; with lipoamide (arsenate co-treatment: none), 0.123.

With DUSP23 (UniProt Q9BVJ7), the values for the thermal stability z-score with potassium arsenate, in the test with lipoamide (setting [1]) and with lipoamide (arsenate co-treatment: none) were -0.0505, 1.22 and 0.839, respectively.

With DUT (UniProt P33316), the results for the thermal stability z-score with potassium arsenate, with lipoamide (setting [1]) and with lipoamide (arsenate co-treatment: none) were -0.727, -0.171 and 0.377, respectively.

For the target DVL2 (UniProt O14641), the values for the thermal stability z-score in the test with potassium arsenate, with lipoamide (setting [1]) and with lipoamide (arsenate co-treatment: none) were -0.113, -0.0654 and -0.194, respectively.

Consider DXO (UniProt O77932), for which the thermal stability z-score in the test with potassium arsenate was 0.0286; with lipoamide (setting [1]) it was 0.186; with lipoamide (arsenate co-treatment: none) it was 0.216.

With DYM (UniProt Q7RTS9), the figures for the thermal stability z-score with potassium arsenate, with lipoamide (setting [1]) and in the test with lipoamide (arsenate co-treatment: none) were -0.365, 0.487 and -0.0128, respectively.

With DYNC1H1 (UniProt Q14204), the thermal stability z-score is -0.164 in the test with potassium arsenate, -0.0235 with lipoamide (setting [1]) and 0.118 in the test with lipoamide (arsenate co-treatment: none).

For DYNC1I2 (UniProt Q13409), the values for the thermal stability z-score in the test with potassium arsenate, in the test with lipoamide (setting [1]) and with lipoamide (arsenate co-treatment: none) were -0.19, 0.0629 and 0.266, respectively.

With DYNC1LI1 (UniProt Q9Y6G9), the thermal stability z-score is 0.463 with potassium arsenate, -0.18 in the test with lipoamide (setting [1]) and -0.1 with lipoamide (arsenate co-treatment: none).
